From patent publication US7754272B2, “Local drug delivery” (Biocompatibles IK Limited, priority 1999, dated 2010)

Experiments:
[1] = Drug loading of HEMA-PC:HEMA:MMA:MBA crosslinked membrane; type: physicochemical; conditions: HEMA-PC:HEMA:MMA:MBA copolymer swollen in aqueous drug solution, room temperature, over night
From the text: The polymers including MBA were polymerised in situ to form crosslinked membranes. […] The crosslinked polymers were used to form “infinite slabs” type membranes, to simulate the coating on a stent. […] The loaded levels were established to be the following: […]

[2] = Loading and release from quater polymer membrane; type: physicochemical; conditions: caffeine from aqueous, dipyridamole from 1:1 ethanol:water solution
[3] = Release from loaded membrane into water; type: physicochemical; conditions: HEMA-PC:HEMA:MMA:MBA membrane, FIG. 1
From the text: The profile of fractional release against square root of time for release into water (using the same equipment as example 2) are set out in FIG. 1.

[4] = Effect of polymer composition on release of dicloxacillin; type: physicochemical; conditions: HEMA-PC:LM 1:4 with 2 mole % 3-chloro-2-hydroxypropyl methacrylate vs example 3 polymer, FIG. 2
From the text: The membrane formed based on a 1:4 copolymer of HEMA-PC and dodecylmethacrylate (LM) with 2 mole % of reactive monomer which is 3-chloro-2-hydroxypropyl methacrylate, was compared to the polymer crosslinked by diethylenically unsaturated monomer MBA used in example 3 above, to compare release rates to dicloxacillin, a medium molecular weight model drug.

[5] = Ex vivo human saphenous vein model, polymer/dipyridamole coated stents
Procedure: Palmaz-Schatz Stents (trade mark) were coated with a solution of the same polymer as used in Reference Example 1, dissolved in ethanol at 50 g/l concentration, also containing dipyridamole at 30 g/l concentration. Stents were dipped into the solution by hand, using several coating steps. The stents were then cured overnight at 70 C. in moist air.
The coated stents were tested in an ex vivo model using fresh human saphenous vein, previously washed in the same culture medium as is used in Example 16 above, in the ex vivo tests. The stents were delivered into veins, which were subsequently deposited into apparatus used in Example 16. The circulating liquid, and the vessel wall were analysed at 1, 6 or 24 hours to determine localisation of dipyridamole. […] Similarly, the level of dipyridamole remaining on the stent decreases from 1 hour to 24 hours. […] At this time, dipyridamole is concentrated in the section of the vein immediately surrounding the stent with lower levels in the vessel immediately adjacent those sections.

| Structure (SMILES) | Loading (mg/g polymer) [1] | total loading [2] | level of drug per stent (coated stent swollen in aqueous caffeine 10 mg/ml) | share of loading released in the first 60 seconds (first 60 seconds) | release times (release into aqueous medium, loaded from 10 mg/ml) | loading levels or release half life versus 10 mg/ml loading (swelling solution 10% w/w caffeine) | release into water [3] | release half life, polymer having hydrophobic groups versus MBA-crosslinked polymer [4] | dipyridamole within the vessel wall ([5]; 1, 6 or 24 hours) | dipyridamole in the circulating medium ([5]; 1 to 24 hours) |
| --- | --- | --- | --- | --- | --- | --- | --- | --- | --- | --- |
| Cn1c(=O)c2c(ncn2C)n(C)c1=O [Caffeine, caffeine] | 80 mg/g polymer | 28 mg/g polymer | around 0.025 mg per stent | at least 80% | negligible | No significant increase | substantially total release after about an hour |  |  |  |
| Cc1onc(-c2c(Cl)cccc2Cl)c1C(=O)N[C@@H]1C(=O)N2[C@@H]1SC(C)(C)[C@@H]2C(=O)O [Dicloxacillin, dicloxacillin] | 32 mg/g polymer |  |  |  |  |  |  | much higher |  |  |
| OCCN(CCO)c1nc(N2CCCCC2)c2nc(N(CCO)CCO)nc(N3CCCCC3)c2n1 [Dipyridamole, dipyridamole] | 32 mg/g polymer | 18 mg/g polymer |  |  |  |  |  |  | no dipyridamole could be seen within the vessel wall until twenty four hours after stent deployment | can be detected in the circulating medium after one hour |
